Experimental data taken from US8410112B2, “Compounds useful as inhibitors of ATR kinase” (Vertex Pharmaceuticals Incorporated, priority 2008, dated 2013).

The compounds below were run against T1, full-length ATR (Homo sapiens, UniProt Q13535) (assay: ATR Inhibition Assay (radioactive-phosphate incorporation)). Conditions: Ki(app); 5 nM full-length ATR, 10 μM ATP, 800 μM target peptide, 25° C.
T1 construct: in the presence of 5 nM full-length ATR
Format: biochemical
Method in brief: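 Buffer was 50 mM Tris/HCl pH 7.5, 10 mM MgCl2, 1 mM DTT, with 5 nM enzyme, 10 μM [γ-33P]ATP and 800 μM target peptide at 25 °C. Compound was pre-incubated 10 min before ATP start, and the reaction was stopped after 24 h. Phosphocellulose filter capture; Ki(app) came from non-linear regression of background-corrected initial rates.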

T1 sequence (Q13535 whole entry): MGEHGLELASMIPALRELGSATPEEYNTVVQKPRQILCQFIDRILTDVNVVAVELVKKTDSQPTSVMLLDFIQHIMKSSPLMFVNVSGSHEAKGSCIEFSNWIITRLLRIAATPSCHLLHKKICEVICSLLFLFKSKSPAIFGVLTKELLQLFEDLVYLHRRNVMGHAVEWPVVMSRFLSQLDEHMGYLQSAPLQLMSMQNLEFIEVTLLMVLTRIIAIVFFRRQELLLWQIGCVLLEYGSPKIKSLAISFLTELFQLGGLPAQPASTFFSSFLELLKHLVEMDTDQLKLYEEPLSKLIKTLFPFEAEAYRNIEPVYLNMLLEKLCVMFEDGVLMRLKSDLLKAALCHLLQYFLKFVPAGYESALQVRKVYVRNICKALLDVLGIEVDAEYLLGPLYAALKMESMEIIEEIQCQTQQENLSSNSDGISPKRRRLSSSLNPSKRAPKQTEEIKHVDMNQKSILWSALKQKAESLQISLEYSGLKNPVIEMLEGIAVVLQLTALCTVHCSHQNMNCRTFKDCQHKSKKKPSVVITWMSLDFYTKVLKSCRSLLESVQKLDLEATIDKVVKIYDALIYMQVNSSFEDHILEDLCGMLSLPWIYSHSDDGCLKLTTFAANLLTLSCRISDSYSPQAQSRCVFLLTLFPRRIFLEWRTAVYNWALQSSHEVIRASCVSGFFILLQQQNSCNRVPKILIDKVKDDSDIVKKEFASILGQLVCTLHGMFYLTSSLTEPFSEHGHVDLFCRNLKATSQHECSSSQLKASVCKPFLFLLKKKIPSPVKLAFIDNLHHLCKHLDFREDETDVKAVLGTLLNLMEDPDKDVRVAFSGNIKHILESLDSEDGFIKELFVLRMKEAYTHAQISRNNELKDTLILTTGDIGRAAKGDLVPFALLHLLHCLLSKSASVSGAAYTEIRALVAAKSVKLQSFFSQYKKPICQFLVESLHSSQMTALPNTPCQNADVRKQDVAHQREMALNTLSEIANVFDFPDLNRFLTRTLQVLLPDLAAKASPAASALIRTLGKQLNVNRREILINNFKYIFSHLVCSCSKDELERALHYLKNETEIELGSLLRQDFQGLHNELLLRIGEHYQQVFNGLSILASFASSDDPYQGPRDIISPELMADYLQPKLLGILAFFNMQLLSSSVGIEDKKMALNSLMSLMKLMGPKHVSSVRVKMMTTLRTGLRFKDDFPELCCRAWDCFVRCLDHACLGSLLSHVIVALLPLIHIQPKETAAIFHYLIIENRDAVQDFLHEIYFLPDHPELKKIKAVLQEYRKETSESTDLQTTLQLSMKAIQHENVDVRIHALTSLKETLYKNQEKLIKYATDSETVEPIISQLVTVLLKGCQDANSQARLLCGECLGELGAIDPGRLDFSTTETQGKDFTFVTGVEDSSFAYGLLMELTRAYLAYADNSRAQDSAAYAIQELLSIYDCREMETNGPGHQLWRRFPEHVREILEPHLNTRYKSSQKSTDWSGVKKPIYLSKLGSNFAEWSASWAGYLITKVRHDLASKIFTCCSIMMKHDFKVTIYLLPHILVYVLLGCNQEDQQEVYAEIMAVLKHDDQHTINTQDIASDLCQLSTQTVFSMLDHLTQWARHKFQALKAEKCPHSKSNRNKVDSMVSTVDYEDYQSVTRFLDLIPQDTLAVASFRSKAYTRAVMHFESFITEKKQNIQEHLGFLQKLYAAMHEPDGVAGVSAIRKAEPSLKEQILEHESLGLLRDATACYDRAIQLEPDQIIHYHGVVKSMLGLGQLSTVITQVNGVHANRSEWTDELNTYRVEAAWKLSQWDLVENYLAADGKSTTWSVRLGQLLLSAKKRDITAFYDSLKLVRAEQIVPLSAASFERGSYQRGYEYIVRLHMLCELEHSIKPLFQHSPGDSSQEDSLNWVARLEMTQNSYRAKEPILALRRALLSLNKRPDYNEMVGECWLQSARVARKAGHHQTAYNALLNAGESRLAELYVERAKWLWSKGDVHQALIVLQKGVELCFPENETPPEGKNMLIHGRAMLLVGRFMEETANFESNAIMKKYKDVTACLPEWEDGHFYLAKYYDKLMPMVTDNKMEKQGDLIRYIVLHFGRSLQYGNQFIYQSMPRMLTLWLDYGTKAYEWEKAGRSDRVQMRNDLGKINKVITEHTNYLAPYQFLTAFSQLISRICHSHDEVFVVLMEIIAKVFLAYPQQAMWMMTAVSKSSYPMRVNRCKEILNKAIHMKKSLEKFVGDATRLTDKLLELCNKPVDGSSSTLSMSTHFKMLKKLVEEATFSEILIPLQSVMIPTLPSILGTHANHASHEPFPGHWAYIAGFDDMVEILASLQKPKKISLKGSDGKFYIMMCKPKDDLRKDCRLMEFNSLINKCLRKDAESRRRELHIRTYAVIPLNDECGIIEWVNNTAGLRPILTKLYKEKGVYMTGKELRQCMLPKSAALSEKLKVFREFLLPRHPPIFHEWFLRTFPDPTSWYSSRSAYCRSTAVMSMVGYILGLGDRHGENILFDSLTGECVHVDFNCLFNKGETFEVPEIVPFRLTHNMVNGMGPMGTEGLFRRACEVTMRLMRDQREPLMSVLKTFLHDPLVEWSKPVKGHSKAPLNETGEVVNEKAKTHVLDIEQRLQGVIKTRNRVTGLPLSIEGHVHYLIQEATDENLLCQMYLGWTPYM

| Compound | Ki [µM] |
| --- | --- |
| CCOC(=O)N1CCN(c2cnc(N)c(-c3nc4ccc(C)cc4[nH]3)n2)CC1 [Compound I-32, ethyl 4-(5-amino-6-(6-methyl-1H-benzo[d]imidazol-2-yl)pyrazin-2-yl)piperazine-1-carboxylate] | 1 to 10 |
| Nc1ncc(N2CCN(C(=O)c3c(F)cccc3F)CC2)nc1C(=O)Nc1ccccn1 [Compound I-149, 3-amino-6-(4-(2,6-difluorophenylcarbonyl)piperazin-1-yl)-N-(pyridin-2-yl)pyrazine-2-carboxamide] | 0.1 to 1 |
| CCS(=O)(=O)N1CC=C(c2cnc(N)c(-c3nc4cc(C)c(C)cc4[nH]3)n2)CC1 [Compound I-154, 3-(5,6-dimethyl-1H-benzo[d]imidazol-2-yl)-5-(1-(ethylsulfonyl)-1,2,3,6-tetrahydropyridin-4-yl)pyrazin-2-amine] | 0.1 to 1 |
| Nc1ncc(N2CCN(C(=O)C3CCCCC3)CC2)nc1-c1nnc(-c2ccccc2)o1 [Compound I-251, (4-(5-amino-6-(5-phenyl-1,3,4-oxadiazol-2-yl)pyrazin-2-yl)piperazin-1-yl)(cyclohexyl)methanone] | 0.1 to 1 |
| Nc1ncc(N2CC[C@H](N)C2)nc1-c1nc2ccccc2[nH]1 [Compound I-39, (S)-5-(3-aminopyrrolidin-1-yl)-3-(1H-benzo[d]imidazol-2-yl)pyrazin-2-amine] | 1 to 10 |
| Nc1ncc(N2CCN(C(=O)Cc3ccccc3)CC2)nc1C(=O)Nc1ccccn1 [Compound I-141, 3-amino-6-(4-(2-phenylethanoyl)piperazin-1-yl)-N-(pyridin-2-yl)pyrazine-2-carboxamide] | 1 to 10 |
| Nc1ncc(N2CCN(CCO)CC2)nc1-c1nnc(-c2ccccc2)o1 [Compound I-306, 2-[4-[5-amino-6-(5-phenyl-1,3,4-oxadiazol-2-yl)pyrazin-2-yl]piperazin-1-yl]ethanol] | 1 to 10 |
| CNC(=O)C1CCN(c2cnc(N)c(-c3nc4ccc(C)cc4[nH]3)n2)CC1 [Compound I-13, 1-(5-amino-6-(6-methyl-1H-benzo[d]imidazol-2-yl)pyrazin-2-yl)-N-methylpiperidine-4-carboxamide] | 1 to 10 |
| CNCc1ccc(-c2nnc(-c3nc(N4C[C@@H]5C(C(=O)O)[C@@H]5C4)cnc3N)o2)cc1 (stereo partly drawn) [Compound I-349, (1R,5S)-3-[5-Amino-6-[5-[4-(methylaminomethyl)phenyl]-1,3,4-oxadiazol-2-yl]pyrazin-2-yl]-3-azabicyclo[3.1.0]hexane-6-carboxylic acid] | 0.1 to 1 |
| CCCS(=O)(=O)N1CC=C(c2cnc(N)c(-c3nnc(-c4ccccc4)o3)n2)CC1 [Compound I-124, 3-(5-phenyl-1,3,4-oxadiazol-2-yl)-5-(1-(propylsulfonyl)-1,2,3,6-tetrahydropyridin-4-yl)pyrazin-2-amine] | < 0.1 |
| CNCc1ccc(-c2nnc(-c3nc(N4CCC[C@@H]4C)cnc3N)o2)cc1 [Compound I-361, 3-[5-[4-(Methylaminomethyl)phenyl]-1,3,4-oxadiazol-2-yl]-5-[(2S)-2-methylpyrrolidin-1-yl]pyrazin-2-amine] | 0.1 to 1 |
| Nc1ncc(N2CCN(S(=O)(=O)C3CCCC3)CC2)nc1-c1nnc(-c2ccccc2)o1 [Compound I-92, 5-(4-(cyclopentylsulfonyl)piperazin-1-yl)-3-(5-phenyl-1,3,4-oxadiazol-2-yl)pyrazin-2-amine] | 0.1 to 1 |
| CCS(=O)(=O)N1CCN(c2cnc(N)c(-c3nnc(-c4ccc(F)cc4)o3)n2)CC1 [Compound I-292, 5-(4-ethylsulfonylpiperazin-1-yl)-3-[5-(4-fluorophenyl)-1,3,4-oxadiazol-2-yl]pyrazin-2-amine] | 0.1 to 1 |
| Nc1ncc(C2=CCN(C(=O)CCC(=O)O)CC2)nc1-c1nc2ccccc2[nH]1 [Compound I-324, 4-(4-(5-Amino-6-(1H-benzo[d]imidazol-2-yl)pyrazin-2-yl)-5,6-dihydropyridin-1(2H)-yl)-4-oxobutanoic acid] | 0.1 to 1 |
| CC(C)(C)C(=O)N[C@H]1CCN(c2cnc(N)c(-c3nc4ccccc4[nH]3)n2)C1 [Compound I-111, (S)-N-(1-(5-amino-6-(1H-benzo[d]imidazol-2-yl)pyrazin-2-yl)pyrrolidin-3-yl)-2,2-dimethylpropanamide] | 0.1 to 1 |
| CCS(=O)(=O)N1CCN(c2cnc(N)c(-c3cc4ccccc4o3)n2)CC1 [Compound I-29, 3-(benzofuran-2-yl)-5-(4-(ethylsulfonyl)piperazin-1-yl)pyrazin-2-amine] | 0.1 to 1 |
| Nc1ncc(C2=CCN(C(=O)c3ccccn3)CC2)nc1-c1nnc(-c2ccccc2)o1 [Compound I-132, (4-(5-amino-6-(5-phenyl-1,3,4-oxadiazol-2-yl)pyrazin-2-yl)-5,6-dihydropyridin-1(2H)-yl)(pyridin-2-yl)methanone] | < 0.1 |
| CCC(=O)NC1CC[C@H]2CN(c3cnc(N)c(-c4nnc(-c5ccc(CNC)cc5)o4)n3)C[C@@H]12 (stereo partly drawn) [Compound I-355, N-((3aS,6aR)-2-(5-Amino-6-(5-(4-((methylamino)methyl)phenyl)-1,3,4-oxadiazol-2-yl)pyrazin-2-yl)octahydrocyclopenta[c]pyrrol-4-yl)propionamide] | 0.1 to 1 |

| Compound | Ki [µM] |
| --- | --- |
| Nc1ncc(C2=CCN(S(=O)(=O)c3cccs3)CC2)nc1-c1nnc(-c2ccccc2)o1 [Compound I-245, 3-(5-phenyl-1,3,4-oxadiazol-2-yl)-5-(1-(thiophen-2-ylsulfonyl)-1,2,3,6-tetrahydropyridin-4-yl)pyrazin-2-amine] | < 0.1 |
| CNCc1ccc(-c2nnc(-c3nc(N4Cc5ccccc5C4)cnc3N)o2)cc1 [Compound I-321, 5-Isoindolin-2-yl-3-[5-[4-(methylaminomethyl)phenyl]-1,3,4-oxadiazol-2-yl]pyrazin-2-amine] | 1 to 10 |
| CCS(=O)(=O)N1CC=C(c2cnc(N)c(C(=O)Nc3cc(C)nn3C)n2)CC1 [Compound I-168, 3-amino-N-(1,3-dimethyl-1H-pyrazol-5-yl)-6-(1-(ethylsulfonyl)-1,2,3,6-tetrahydropyridin-4-yl)pyrazine-2-carboxamide] | 0.1 to 1 |
| Nc1ncc(N2CCN(S(=O)(=O)c3ccccc3)CC2)nc1C(=O)Nc1ccccn1 [Compound I-207, 3-amino-6-(4-(phenylsulfonyl)piperazin-1-yl)-N-(pyridin-2-yl)pyrazine-2-carboxamide] | 0.1 to 1 |
| CNCc1ccc(-c2nnc(-c3nc(N4CCC(c5ccccc5)C4)cnc3N)o2)cc1 (centres unmarked) [Compound I-316, 3-[5-[4-(Methylaminomethyl)phenyl]-1,3,4-oxadiazol-2-yl]-5-(3-phenylpyrrolidin-1-yl)pyrazin-2-amine] | < 0.1 |
| Nc1ncc(C2=CCN(C(=O)C3CCOCC3)CC2)nc1-c1nc2ccccc2[nH]1 [Compound I-235, (4-(5-amino-6-(1H-benzo[d]imidazol-2-yl)pyrazin-2-yl)-5,6-dihydropyridin-1(2H)-yl)(tetrahydro-2H-pyran-4-yl)methanone] | 0.1 to 1 |
| CC(C)C(=O)N1CCN(c2cnc(N)c(C(=O)Nc3ccccn3)n2)CC1 [Compound I-68, 3-amino-6-(4-(2-methylpropanoyl)piperazin-1-yl)-N-(pyridin-2-yl)pyrazine-2-carboxamide] | 0.1 to 1 |
| CNCc1ccc(-c2nnc(-c3nc(N4CCC[C@@H]4CO)cnc3N)o2)cc1 [Compound I-356, [(2R)-1-[5-Amino-6-[5-[4-(methylaminomethyl)phenyl]-1,3,4-oxadiazol-2-yl]pyrazin-2-yl]pyrrolidin-2-yl]methanol] | 0.1 to 1 |
| Cc1ccc2nc(-c3nc(N4CCn5cnnc5C4)cnc3N)[nH]c2c1 [Compound I-281, 5-(5,6-dihydro-[1,2,4]triazolo[4,3-a]pyrazin-7(8H)-yl)-3-(6-methyl-1H-benzo[d]imidazol-2-yl)pyrazin-2-amine] | 1 to 10 |
| Nc1ncc(N2CCN(C(=O)OCc3ccccc3)CC2)nc1C(=O)Nc1ccccn1 [Compound I-260, benzyl 4-(5-amino-6-(pyridin-2-ylcarbamoyl)pyrazin-2-yl)piperazine-1-carboxylate] | 1 to 10 |
| Nc1ncc(N2CCN(C(=O)C3CCCCC3)CC2)nc1C(=O)Nc1ccccn1 [Compound I-256, 3-amino-6-(4-(cyclohexanecarbonyl)piperazin-1-yl)-N-(pyridin-2-yl)pyrazine-2-carboxamide] | 0.1 to 1 |
| CCS(=O)(=O)N1CCN(c2cnc(N)c(-c3nnc(Nc4ccccc4)o3)n2)CC1 [Compound I-69, 5-(3-amino-6-(4-(ethylsulfonyl)piperazin-1-yl)pyrazin-2-yl)-N-phenyl-1,3,4-oxadiazol-2-amine] | 0.1 to 1 |
| CCC(=O)N1CCN(c2cnc(N)c(-c3nnc(-c4ccc(CNC)cc4)o3)n2)C[C@@H]1C(C)C [Compound I-326, 1-[(2S)-4-[5-Amino-6-[5-[4-(methylaminomethyl)phenyl]-1,3,4-oxadiazol-2-yl]pyrazin-2-yl]-2-isopropyl-piperazin-1-yl]propan-1-one] | < 0.1 |
| Nc1ncc(C2=CCN(S(=O)(=O)c3ccccc3)CC2)nc1-c1nnc(-c2ccccc2)o1 [Compound I-102, 3-(5-phenyl-1,3,4-oxadiazol-2-yl)-5-(1-(phenylsulfonyl)-1,2,3,6-tetrahydropyridin-4-yl)pyrazin-2-amine] | < 0.1 |
| CC(=O)C1(c2ccccc2)CCN(c2cnc(N)c(-c3nc4ccc(C)cc4[nH]3)n2)CC1 [Compound I-44, 1-(1-(5-amino-6-(6-methyl-1H-benzo[d]imidazol-2-yl)pyrazin-2-yl)-4-phenylpiperidin-4-yl)ethanone] | 1 to 10 |
| Cc1ccc2nc(-c3nc(N4CCN(C(=O)c5ccco5)CC4)cnc3N)[nH]c2c1 [Compound I-53, (4-(5-amino-6-(6-methyl-1H-benzo[d]imidazol-2-yl)pyrazin-2-yl)piperazin-1-yl)(furan-2-yl)methanone] | 0.1 to 1 |
| Nc1ncc(N2CCN(S(=O)(=O)c3cccnc3)CC2)nc1C(=O)Nc1ccccn1 [Compound I-233, 3-amino-N-(pyridin-2-yl)-6-(4-(pyridin-3-ylsulfonyl)piperazin-1-yl)pyrazine-2-carboxamide] | 0.1 to 1 |
